From the METLIN SMRT retention time set (Domingo-Almenara et al. 2019) come the findings set out here.

A short description of the data set: gradient 5% acetonitrile 3 min, to 50% in 2 min, to 85% in 15 min, held 3 min, 100 µL/min. As to conditions: column: Zorbax Extend-C18 2.1 x 50 mm; eluents: water / acetonitrile, 0.1% formic acid. In short, it runs like this: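 Using water and acetonitrile that each contained 0.1% formic acid, mixtures of ~100 pure standards were separated at 100 μL/min on a Zorbax Extend-C18 column (2.1 × 50 mm, 1.8 μm). The HPLC fed a quadrupole time-of-flight mass spectrometer working in positive and negative ionization mode, with dead and dwell volumes of 40 μL and 900 μL. Data were acquired over 3 months. Retention time was read from computationally picked adduct peaks after manual inspection of each.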
The compound `CCC(C)N1C(=O)CN(C2CCCCCC2)C(=O)C1c1ccccc1F` (centres undefined) came in with an RP-LC retention time of 1020 s.
Take `CNC(=O)C1CCN(Cc2noc(-c3ccc(F)cc3)n2)CC1`: the RP-LC retention time came out at 581 s.
The result for `CC(C)c1csc(-c2csc(S(=O)(=O)Nc3ccc(Br)cc3F)c2)n1` reads 1200 s; that for `CCn1ccc(C(=O)N2CCCC2c2cccc(C)c2)n1` (centres undefined), 890 s; that for `CSc1nnc(-c2nn(C)c3c2CN(C(=O)c2ccc(C)c(C)c2)CC3)n1C`, 770 s.
The result for `Cc1ccc(-c2nc(Cn3nnc(C(=O)NC4CCCC4)c3C)c(C)o2)cc1` reads 1060 s; that for `Cc1cccc(-c2noc(Cc3nnc(-c4ccccc4)o3)n2)c1`, 1030 s.
The result for `CC(=O)Nc1ccc(-c2noc(C3CCN(C(=O)c4ccc(Br)cc4)CC3)n2)cc1` reads 841 s; that for `CCOc1cc(=O)n2c(c1C(=O)Nc1cc(OC)c(Cl)cc1OC)CCCC2`, 763 s.
`Cc1ccc(NC(=O)CN2C(=O)CCCc3cc(S(=O)(=O)N4CCC(C)CC4)ccc32)cc1` came in with an RP-LC retention time of 976 s.
In the case of `O=C(NCCn1nnc2cc(C(=O)N3CCCC3)ccc21)Nc1ccc(Br)cc1F` it was 742 s; in that of `CCc1cc(C(=O)Nc2ccccc2C)nc2ccnn12`, 1010 s; in that of `COc1ccccc1N1CCN(C(=O)c2cccc([N+](=O)[O-])c2)CC1`, 786 s.
In turn, `COCCc1noc(-c2cnc3nc(C)ccc3c2NC2CCCCCC2)n1` gave an RP-LC retention time of 734 s.
In the case of `Cc1ccc(-n2c(N3CCCC(C(=O)Nc4ccc(F)cc4)C3)nc3ccsc3c2=O)cc1` (centres undefined) it was 959 s; in that of `O=C(CSc1nnc(-c2cccs2)o1)N1CCc2ccccc21`, 875 s; in that of `Cc1ccc(-n2nc(OC(C)C(=O)NCc3ccco3)ccc2=O)cc1C` (centres undefined), 748 s.
The result for `CCc1ccc(NS(=O)(=O)c2c(C)sc(C)c2-c2cc(C)[nH]n2)cc1` reads 1130 s; that for `COc1ccccc1NC(=O)Cn1nc2c(Oc3ccccc3C)nccn2c1=O`, 839 s; that for `O=C(CN1C(=O)c2ccccc2C1=O)N1CCCN(c2nc3ncccc3o2)CC1`, 681 s.
The compound `Cc1ccc(NC(=O)Cn2c(C)cc(-c3nnc(C)o3)c2C)c(C)c1` gave an RP-LC retention time of 802 s.
The result for `COc1cc(OC)cc(-c2nnc(Cc3nc(-c4ccccc4)no3)o2)c1` reads 1020 s.
In the case of `CCOC(=O)c1cccc(Nc2ncccc2S(N)(=O)=O)c1` it was 854 s.
`CCOc1ccc(NC(=O)N2CCCC(C)(C(=O)NCc3cccc(OC)c3)C2)cc1` (centres undefined) yielded an RP-LC retention time of 872 s.
With `Cc1cccc(S(=O)(=O)Nc2ccc3c(c2)CCC(=O)N3C)c1`, the RP-LC retention time was 758 s.
In the case of `CCSc1nnc(-c2nn(C)c3c2CN(C(=O)c2cccc(N(C)C)c2)CC3)n1C` it was 682 s; in that of `O=C(NCCC1=CCCCC1)C1CCc2ncc(-c3ccsc3)n2C1` (centres undefined), 601 s.
In the case of `Cc1cccc(OCc2nc(C)c(C(=O)Nc3nc(-c4ccc5c(c4)OCCCO5)cs3)s2)c1` it was 1230 s.
As to `Cc1ccc2nc(C(=O)NCc3ccc(N(C)C)cc3)cn2c1`, the RP-LC retention time came to 565 s.
With `CC1CCCCN1CCNC(=O)c1cc(S(=O)(=O)N2CCCCC2)ccc1Cl` (centres undefined), the RP-LC retention time was 651 s.
As to `O=S(=O)(c1ccc2nc(N3CCN(c4ccccc4)CC3)ccc2c1)N1CCCCC1`, the RP-LC retention time was determined as 1030 s.
In the case of `CS(=O)(=O)c1ccc(NC(=O)Cn2cnc3c(sc4nc(-c5ccccc5)ccc43)c2=O)cc1` it was 862 s; in that of `Cc1ccc2c(c1)c(=O)c1c(n2C)CCN(CC(=O)Nc2ccccc2Cl)C1`, 640 s.
Compound `Cc1ccc(NC(=O)Cn2nc(N3CCCC3)c3ccccc3c2=O)cc1` gave an RP-LC retention time of 938 s.
Regarding `O=C(Cn1cnc2c(sc3nc(-c4ccccc4)ccc32)c1=O)Nc1cccc(Br)c1`, the RP-LC retention time worked out at 1110 s.
The result for `Cc1ccn2cc(C(=O)N3CCN(C4CCCCC4)CC3)nc2c1` reads 566 s.
Turning to `Cc1ccc(S(=O)(=O)N2CC(=O)N(c3cccc(F)c3)C(C)(C(=O)NCCC(C)C)C2)cc1` (centres undefined), the RP-LC retention time came to 1020 s.
In the case of `Cc1c(F)cccc1NC(=O)N1CCC(c2cc(=O)n3nccc3n2C)CC1` it was 690 s.
For the compound `CCOC(=O)c1nc(NCCc2ccc(C)cc2)c2c(CC)noc2n1`, the RP-LC retention time is 1080 s.
`Cc1cccc(C(=O)NCC(=O)Nc2nc3ccccc3[nH]2)c1`: the RP-LC retention time came to 631 s.
With `COc1ccc(C2c3c(oc4cc(C)c(C)cc4c3=O)C(=O)N2CCCN2CCOCC2)cc1OC` (centres undefined), the RP-LC retention time worked out at 766 s.
`O=C(NCc1cccs1)c1coc(NC(=O)C2CC2)n1` gave an RP-LC retention time of 614 s.
`CCCOc1ccc2nc(NC(=O)OC)[nH]c2c1` had an RP-LC retention time of 652 s.
`CCOC(=O)c1[nH]c(C)c(CCC(=O)NCCN2CCOCC2)c1C` yielded an RP-LC retention time of 597 s.
In the case of `O=C(C1CCN(c2cncnc2N2CCCC2)CC1)N1CCN(c2ccc(F)cc2)CC1` it was 670 s; in that of `CCOC(=O)C1CCN([C@H]2CS(=O)(=O)C[C@@H]2S(=O)(=O)c2ccc(C)cc2)CC1`, 875 s.
Consider `O=S(=O)(Nc1cccn2c(C3CCC3)nnc12)c1ccc2c(c1)OCCO2`, for which the RP-LC retention time was found to be 751 s.
The compound `CC1(C(=O)NCc2ccc(F)cc2)CCN(C(=O)Nc2ccccc2C(F)(F)F)CC1` displayed an RP-LC retention time of 877 s.
The result for `Cc1ccccc1CNC(=O)C1CCN(S(C)(=O)=O)c2ccccc2O1` (centres undefined) reads 841 s; that for `O=C(Cc1ccc(Br)cc1)N1CCN(c2cc(-c3ccccc3)[nH]n2)CC1`, 873 s; that for `CN1[C@@H]2CC[C@H]1CC(OC(=O)C1C=Nc3ccccc31)C2` (some centres undefined), 656 s.
In the case of `O=c1c2ccccc2c(-c2nc(-c3ccncc3)no2)cn1-c1cccc(Cl)c1`, the RP-LC retention time was 1020 s.
`Cc1nn(-c2ccccc2)c(C)c1S(=O)(=O)N1CCC(C(=O)NCc2cccs2)CC1` displayed an RP-LC retention time of 876 s.
In turn, `CCc1noc(NC(C)=O)c1-c1ccc(C)c(S(=O)(=O)NC2CC2)c1` yielded an RP-LC retention time of 728 s.
With `Cc1cccc(C)c1NC(=O)C1CCN(S(C)(=O)=O)c2cc(Cl)ccc2O1` (centres undefined), the RP-LC retention time was determined as 919 s.
In the case of `Cc1ccc2c(c1)cc(S(=O)(=O)c1ccccc1)c(=O)n2CC(=O)N1CCCC1` it was 817 s.
As for `O=C(Cn1ccc2sccc2c1=O)Nc1ccc(Cl)cc1F`, the RP-LC retention time turned out to be 802 s.
Turning to `Fc1ccccc1-c1noc(Cc2nnc(-c3cccc(Br)c3)o2)n1`, the RP-LC retention time was determined as 1110 s.
In the case of `Cc1cc(Cl)ccc1S(=O)(=O)N1CCC2(CCC(CN3CCN(C)CC3)O2)CC1` (centres undefined) it was 642 s; in that of `COc1ccc(OC)c(S(=O)(=O)N2CCCC3(CC2)CNC(=O)O3)c1` (centres undefined), 685 s.
As for `COc1ccccc1NC(=O)Nc1nc(CC(=O)NCc2ccco2)cs1`, the RP-LC retention time came out at 712 s.
Take `O=C(NCc1ccc2c(c1)OCO2)c1ccc(-c2cc(N3CCOCC3)ncn2)cc1`: the RP-LC retention time was determined as 643 s.
The result for `Cc1ccccc1-c1noc(Cn2c(=O)n(-c3cccc(F)c3)c(=O)c3sccc32)n1` reads 1030 s; that for `O=C(COc1ccc(Cl)cc1)Nc1ccc(-c2cn3c(n2)SCC3)cc1`, 627 s.
Regarding `Cc1ccc(C(C)NC(=O)c2ccc3[nH]cc(C(=O)C(=O)N4CCCCCC4)c3c2)c(C)c1` (centres undefined), the RP-LC retention time came to 919 s.
Consider `CCOc1ccccc1NC(=O)CSc1nnc2c3cc(-c4ccc(F)cc4)nn3ccn12`, for which the RP-LC retention time stood at 948 s.
Consider `Cc1csc(-n2nc(C)c(CC(=O)Nc3ccccc3Cl)c2C)n1`, for which the RP-LC retention time is 1010 s.
In the case of `CCc1nnc(-c2ccc(S(=O)(=O)N3CCOCC3)o2)o1` it was 714 s; in that of `Cc1nn2c(CNC(=O)c3ccoc3)c(-c3ccccc3)nc2s1`, 742 s; in that of `Cc1ccc(N2CC(c3nc(-c4ccc(Cl)cc4)no3)CC2=O)cc1` (centres undefined), 1010 s.
In the case of `NC(=O)C1CCN(C(=O)c2cc(-c3ccccc3Cl)on2)CC1` it was 674 s; in that of `O=C(CCC[C@@H]1[C@H]2CCCN3CCC[C@@H](CN1C(=O)C1CC1)[C@@H]23)Nc1ccccc1`, 609 s.
As to `CC(C)n1cc(CN2CC(F)(F)C[C@H]2COc2cccnc2)c2ccccc21`, the RP-LC retention time was determined as 698 s.
As to `CCCNc1cc(-n2nc(C)cc2C)ncn1`, the RP-LC retention time amounted to 771 s.
In the case of `O=C(NC1CC1)C1CCN(Cc2cc3ccccc3n2Cc2ccc(Cl)cc2)CC1` it was 717 s.
In the case of `CC(C)CC(=O)Nc1ccc2c(c1)nc(CN1CCN(C(=O)c3ccco3)CC1)n2C` it was 620 s; in that of `O=C(C1CCN(c2nc3ccc(-c4cncnc4)nc3s2)CC1)N1CCCCC1`, 787 s.
The result for `CCC(C)NC(=O)C1CCN(Cc2c(C)n(CC)c3ccccc23)CC1` (centres undefined) reads 667 s; that for `COc1ccccc1CC(=O)Nc1ccc2c(c1)CCC(=O)N2C`, 721 s.
